Data reported in ChEMBL document CHEMBL4330071 (Eur J Med Chem, 2019).

Columns and labels:
[1] = molecular target: Tyrosine-protein kinase ABL1 (Homo sapiens, UniProt P00519); experiment: Inhibition of human ABL1 assessed as residual activity at 10 uM using EAIYAAPFAKKK as substrate preincubated for 20 mins followed by [gamma-33P]-ATP addition and measured after 120 mins by Hotspot assay relative to control
[2] = molecular target: ALK tyrosine kinase receptor (Homo sapiens, UniProt Q9UM73); experiment: Inhibition of human ALK assessed as residual activity at 10 uM using poly[Glu:Tyr] (4:1) as substrate preincubated for 20 mins followed by [gamma-33P]-ATP addition and measured after 120 mins by Hotspot assay relative to control
[3] = molecular target: Tyrosine-protein kinase BTK (Homo sapiens, UniProt Q06187); experiment: Inhibition of human BTK assessed as residual activity at 10 uM using KVEKIGEGTYGVVYK as substrate preincubated for 20 mins followed by [gamma-33P]-ATP addition and measured after 120 mins by Hotspot assay relative to control
[4] = molecular target: Cyclin-dependent kinase 4/cyclin D1 (Homo sapiens) (UniProt P11802+P24385); experiment: Inhibition of human CDK4/cyclin-D1 assessed as residual activity at 10 uM using RB protein as substrate preincubated for 20 mins followed by [gamma-33P]-ATP addition and measured after 120 mins by Hotspot assay relative to control; type: protein-complex assay
[5] = molecular target: CDK9/cyclin T1 (Homo sapiens) (UniProt O60563+P50750); experiment: Inhibition of human CDK9/cyclin-T1 assessed as residual activity at 10 uM using KTFCGTPEYLAPEVRREPRILSEEEQEMFRDFDYIADWC as substrate preincubated for 20 mins followed by [gamma-33P]-ATP addition and measured after 120 mins by Hotspot assay relative to control; type: protein-complex assay
[6] = molecular target: Serine/threonine-protein kinase Chk1 (Homo sapiens) (UniProt O14757); experiment: Inhibition of human CHK1 assessed as residual activity at 10 uM using KKKVSRSGLYRSPSMPENLNRPR as substrate preincubated for 20 mins followed by [gamma-33P]-ATP addition and measured after 120 mins by Hotspot assay relative to control
[7] = molecular target: Discoidin domain-containing receptor 2 (Homo sapiens) (UniProt Q16832); experiment: Inhibition of human DDR2 assessed as residual activity at 10 uM using KKSRGDYMTMQIG as substrate preincubated for 20 mins followed by [gamma-33P]-ATP addition and measured after 120 mins by Hotspot assay relative to control
[8] = molecular target: Mitogen-activated protein kinase 1 (Homo sapiens) (UniProt P28482); experiment: Inhibition of human ERK2 assessed as residual activity at 10 uM using MBP as substrate preincubated for 20 mins followed by [gamma-33P]-ATP addition and measured after 120 mins by Hotspot assay relative to control
[9] = molecular target: Inhibitor of nuclear factor kappa-B kinase subunit alpha (Homo sapiens) (UniProt O15111); experiment: Inhibition of human IKKalpha assessed as residual activity at 10 uM using KKKKERLLDDRHDSGLDSMKDEE as substrate preincubated for 20 mins followed by [gamma-33P]-ATP addition and measured after 120 mins by Hotspot assay relative to control
[10] = molecular target: Tyrosine-protein kinase JAK2 (Homo sapiens) (UniProt O60674); experiment: Inhibition of human JAK2 assessed as residual activity at 10 uM using poly[Glu:Tyr] (4:1) as substrate preincubated for 20 mins followed by [gamma-33P]-ATP addition and measured after 120 mins by Hotspot assay relative to control
[11] = molecular target: Mitogen-activated protein kinase 8 (Homo sapiens) (UniProt P45983); experiment: Inhibition of human JNK1 assessed as residual activity at 10 uM using ATF2 as substrate preincubated for 20 mins followed by [gamma-33P]-ATP addition and measured after 120 mins by Hotspot assay relative to control
[12] = molecular target: Platelet-derived growth factor receptor alpha (Homo sapiens, UniProt P16234); experiment: Inhibition of human PDGFRalpha assessed as residual activity at 10 uM using poly[Glu:Tyr] (4:1) as substrate preincubated for 20 mins followed by [gamma-33P]-ATP addition and measured after 120 mins by Hotspot assay relative to control
[13] = molecular target: Tyrosine-protein kinase ABL1 (Homo sapiens, UniProt P00519, H396P); experiment: Binding affinity to human non-phosphorylated ABL1 H396P mutant (S229 to K512 residues) expressed in mammalian expression system after 60 mins by Kinomescan method
[14] = molecular target: T1, Mast/stem cell growth factor receptor Kit (Homo sapiens, UniProt P10721); experiment: Binding affinity to wild-type human partial length KIT (I571 to D952 residues) expressed in bacterial expression system after 60 mins by Kinomescan method
[15] = molecular target: T1, Mast/stem cell growth factor receptor Kit; experiment: Binding affinity to wild-type human partial length autoinhibited KIT (Y545 to D952 residues) expressed in mammalian expression system after 60 mins by Kinomescan method
[16] = molecular target: Tyrosine-protein kinase Lck (Homo sapiens, UniProt P06239); experiment: Inhibition of human LCK using poly[Glu:Tyr] (4:1) as substrate preincubated for 20 mins followed by [gamma-33P]-ATP addition and measured after 120 mins by Hotspot assay
[17] = molecular target: Vascular endothelial growth factor receptor 2 (Homo sapiens, UniProt P35968); experiment: Inhibition of human KDR using poly[Glu:Tyr] (4:1) as substrate preincubated for 20 mins followed by [gamma-33P]-ATP addition and measured after 120 mins by Hotspot assay
K562 = experiment: Growth inhibition of FLT3 null human K562 cells at 10 uM after 72 hrs by CellTiter-Glo assay relative to control; type: functional; details: K562, 72 h, read-out: GI
MV4-11 [18] = experiment: Cytotoxicity against human MV4-11 cells at 1 uM after 72 hrs by MTT assay; type: cell-based; details: mv4-11, 72 h
MV4-11 [19] = experiment: Induction of apoptosis in human MV4-11 cells assessed as early apoptotic cells at 0.05 uM after 24 hrs by Annexin V-FITC/propidium iodide staining based flow cytometric analysis (reference value: 3.39%); type: functional
MV4-11 [20] = experiment: Induction of apoptosis in human MV4-11 cells assessed as late apoptotic cells at 0.05 uM after 24 hrs by Annexin V-FITC/propidium iodide staining based flow cytometric analysis (reference value: 1.42%); type: functional
MV4-11 [21] = experiment: Induction of apoptosis in human MV4-11 cells assessed as late apoptotic cells at 0.2 uM after 24 hrs by Annexin V-FITC/propidium iodide staining based flow cytometric analysis (reference value: 1.42%); type: functional
MV4-11 [22] = experiment: Induction of apoptosis in human MV4-11 cells assessed as necrotic cells at 0.2 uM after 24 hrs by Annexin V-FITC/propidium iodide staining based flow cytometric analysis (reference value: 0%); type: functional
MV4-11 [23] = experiment: Induction of apoptosis in human MV4-11 cells assessed as viable cells at 0.5 uM after 24 hrs by Annexin V-FITC/propidium iodide staining based flow cytometric analysis (reference value: 95.19%); type: functional; details: MV4-11, 24 h, read-out: Activity
MV4-11 [24] = experiment: Induction of apoptosis in human MV4-11 cells assessed as viable cells at 1 uM after 24 hrs by Annexin V-FITC/propidium iodide staining based flow cytometric analysis (reference value: 95.19%); type: functional; details: MV4-11, 24 h, read-out: Activity
[25] = Intrinsic clearance in rat liver microsomes assessed per mg protein at 1 uM after 5 to 60 mins in presence of NADPH by LC-MS/MS analysis; type: ADME, Microsome; details: read-out: CLH

T1 sequence (P10721 whole entry, the tested form may be a part): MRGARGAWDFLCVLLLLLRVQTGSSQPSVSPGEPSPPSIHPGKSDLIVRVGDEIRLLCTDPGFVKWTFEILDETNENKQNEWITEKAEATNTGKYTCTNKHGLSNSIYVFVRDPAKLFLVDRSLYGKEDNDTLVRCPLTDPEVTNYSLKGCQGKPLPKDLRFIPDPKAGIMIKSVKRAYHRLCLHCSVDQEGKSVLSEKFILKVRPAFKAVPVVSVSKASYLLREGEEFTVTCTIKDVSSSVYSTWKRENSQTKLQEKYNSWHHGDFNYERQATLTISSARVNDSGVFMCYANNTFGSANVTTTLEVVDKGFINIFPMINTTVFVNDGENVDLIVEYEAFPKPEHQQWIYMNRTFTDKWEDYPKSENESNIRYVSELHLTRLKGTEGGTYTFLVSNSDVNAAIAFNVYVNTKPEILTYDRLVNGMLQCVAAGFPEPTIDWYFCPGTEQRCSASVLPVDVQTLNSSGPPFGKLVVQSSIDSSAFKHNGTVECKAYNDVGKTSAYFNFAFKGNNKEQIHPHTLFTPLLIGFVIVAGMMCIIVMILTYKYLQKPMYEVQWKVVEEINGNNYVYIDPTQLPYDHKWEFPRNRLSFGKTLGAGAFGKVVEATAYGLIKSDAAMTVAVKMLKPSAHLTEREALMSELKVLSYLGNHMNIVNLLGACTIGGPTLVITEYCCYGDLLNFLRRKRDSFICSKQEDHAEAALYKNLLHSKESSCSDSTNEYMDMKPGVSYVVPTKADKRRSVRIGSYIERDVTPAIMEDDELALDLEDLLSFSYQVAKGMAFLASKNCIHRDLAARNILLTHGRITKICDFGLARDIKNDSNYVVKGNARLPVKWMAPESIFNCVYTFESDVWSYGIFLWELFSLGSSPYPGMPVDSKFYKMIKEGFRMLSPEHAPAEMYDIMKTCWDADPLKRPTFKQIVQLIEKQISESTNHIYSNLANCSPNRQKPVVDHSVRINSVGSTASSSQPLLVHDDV
Chain of Tyrosine-protein kinase JAK2 (Homo sapiens) (O60674 whole entry): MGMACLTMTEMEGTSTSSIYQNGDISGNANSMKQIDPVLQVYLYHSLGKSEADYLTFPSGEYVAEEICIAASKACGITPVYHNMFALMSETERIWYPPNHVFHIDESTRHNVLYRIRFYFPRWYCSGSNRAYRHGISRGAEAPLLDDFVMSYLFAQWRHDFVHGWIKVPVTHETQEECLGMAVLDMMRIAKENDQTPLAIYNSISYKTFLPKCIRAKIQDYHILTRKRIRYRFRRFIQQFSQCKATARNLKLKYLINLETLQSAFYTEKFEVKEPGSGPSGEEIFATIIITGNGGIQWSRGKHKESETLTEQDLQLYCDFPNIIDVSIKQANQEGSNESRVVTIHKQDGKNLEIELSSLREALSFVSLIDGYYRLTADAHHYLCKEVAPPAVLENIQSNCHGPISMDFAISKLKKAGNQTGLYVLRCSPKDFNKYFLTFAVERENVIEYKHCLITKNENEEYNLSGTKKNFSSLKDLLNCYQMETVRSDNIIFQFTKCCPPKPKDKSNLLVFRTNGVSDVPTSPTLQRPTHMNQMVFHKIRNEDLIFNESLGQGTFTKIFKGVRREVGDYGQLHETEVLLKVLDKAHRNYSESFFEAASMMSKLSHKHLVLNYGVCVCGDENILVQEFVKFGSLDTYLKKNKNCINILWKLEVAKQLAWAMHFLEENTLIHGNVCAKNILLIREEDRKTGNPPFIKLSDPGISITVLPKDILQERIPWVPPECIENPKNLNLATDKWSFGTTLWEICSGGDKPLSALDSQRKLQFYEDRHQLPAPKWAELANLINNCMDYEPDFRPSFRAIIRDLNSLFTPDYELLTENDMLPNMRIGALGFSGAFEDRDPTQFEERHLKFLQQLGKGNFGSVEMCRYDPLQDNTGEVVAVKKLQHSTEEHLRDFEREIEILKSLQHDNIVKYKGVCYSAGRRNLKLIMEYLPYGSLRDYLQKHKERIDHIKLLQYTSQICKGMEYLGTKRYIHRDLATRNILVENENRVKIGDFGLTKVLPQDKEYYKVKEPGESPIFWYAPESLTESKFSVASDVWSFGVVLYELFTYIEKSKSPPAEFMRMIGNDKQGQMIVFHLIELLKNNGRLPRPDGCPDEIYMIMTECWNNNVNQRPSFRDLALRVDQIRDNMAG
Chain of Inhibitor of nuclear factor kappa-B kinase subunit alpha (Homo sapiens) (O15111 whole entry): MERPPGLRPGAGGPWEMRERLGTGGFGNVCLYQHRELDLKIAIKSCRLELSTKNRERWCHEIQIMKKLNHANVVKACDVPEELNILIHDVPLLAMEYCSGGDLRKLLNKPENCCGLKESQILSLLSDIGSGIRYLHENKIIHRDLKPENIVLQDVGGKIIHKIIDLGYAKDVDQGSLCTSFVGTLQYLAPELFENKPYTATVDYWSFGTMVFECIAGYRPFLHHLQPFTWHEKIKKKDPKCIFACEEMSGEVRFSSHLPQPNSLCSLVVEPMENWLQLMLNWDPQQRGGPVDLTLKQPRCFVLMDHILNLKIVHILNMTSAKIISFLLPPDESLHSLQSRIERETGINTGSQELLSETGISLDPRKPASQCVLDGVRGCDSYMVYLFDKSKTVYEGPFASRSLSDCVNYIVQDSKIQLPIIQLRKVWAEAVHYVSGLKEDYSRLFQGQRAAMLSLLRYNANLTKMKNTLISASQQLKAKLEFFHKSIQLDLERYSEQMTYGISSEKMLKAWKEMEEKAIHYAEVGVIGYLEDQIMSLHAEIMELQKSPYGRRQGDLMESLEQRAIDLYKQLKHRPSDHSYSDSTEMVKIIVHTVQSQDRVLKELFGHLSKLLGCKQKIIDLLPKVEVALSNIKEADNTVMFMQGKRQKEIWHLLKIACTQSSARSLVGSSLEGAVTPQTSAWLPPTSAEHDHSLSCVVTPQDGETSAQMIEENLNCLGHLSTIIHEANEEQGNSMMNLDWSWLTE
Chain of Platelet-derived growth factor receptor alpha (P16234 whole entry, the tested form may be a part): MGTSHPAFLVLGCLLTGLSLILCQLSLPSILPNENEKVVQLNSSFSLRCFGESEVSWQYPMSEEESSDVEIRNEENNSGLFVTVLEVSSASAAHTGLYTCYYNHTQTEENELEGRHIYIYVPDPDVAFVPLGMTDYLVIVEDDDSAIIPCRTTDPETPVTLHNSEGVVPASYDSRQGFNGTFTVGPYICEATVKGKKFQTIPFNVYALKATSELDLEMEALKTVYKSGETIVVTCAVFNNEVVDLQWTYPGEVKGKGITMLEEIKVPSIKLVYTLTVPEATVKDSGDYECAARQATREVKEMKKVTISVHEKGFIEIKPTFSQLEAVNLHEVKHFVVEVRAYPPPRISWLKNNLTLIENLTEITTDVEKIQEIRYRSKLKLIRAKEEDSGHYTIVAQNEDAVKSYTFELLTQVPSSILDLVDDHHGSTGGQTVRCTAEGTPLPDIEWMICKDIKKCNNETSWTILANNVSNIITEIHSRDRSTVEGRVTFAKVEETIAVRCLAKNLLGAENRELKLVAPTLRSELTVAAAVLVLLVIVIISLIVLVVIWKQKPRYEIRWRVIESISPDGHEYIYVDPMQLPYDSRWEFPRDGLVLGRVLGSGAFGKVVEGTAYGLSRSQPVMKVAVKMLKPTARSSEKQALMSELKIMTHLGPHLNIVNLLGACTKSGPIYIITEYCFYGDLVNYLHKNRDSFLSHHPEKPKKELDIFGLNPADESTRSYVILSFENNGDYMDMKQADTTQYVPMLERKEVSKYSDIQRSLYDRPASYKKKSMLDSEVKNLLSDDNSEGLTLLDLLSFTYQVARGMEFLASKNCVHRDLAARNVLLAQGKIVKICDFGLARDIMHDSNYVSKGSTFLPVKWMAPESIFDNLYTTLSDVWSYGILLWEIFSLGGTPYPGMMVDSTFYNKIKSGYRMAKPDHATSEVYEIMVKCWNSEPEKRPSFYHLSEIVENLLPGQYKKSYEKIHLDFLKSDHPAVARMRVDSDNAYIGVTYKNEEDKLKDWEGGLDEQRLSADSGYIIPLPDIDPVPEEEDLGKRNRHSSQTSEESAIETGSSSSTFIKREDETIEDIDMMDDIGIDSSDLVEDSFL
Chain of Tyrosine-protein kinase Lck (P06239 whole entry): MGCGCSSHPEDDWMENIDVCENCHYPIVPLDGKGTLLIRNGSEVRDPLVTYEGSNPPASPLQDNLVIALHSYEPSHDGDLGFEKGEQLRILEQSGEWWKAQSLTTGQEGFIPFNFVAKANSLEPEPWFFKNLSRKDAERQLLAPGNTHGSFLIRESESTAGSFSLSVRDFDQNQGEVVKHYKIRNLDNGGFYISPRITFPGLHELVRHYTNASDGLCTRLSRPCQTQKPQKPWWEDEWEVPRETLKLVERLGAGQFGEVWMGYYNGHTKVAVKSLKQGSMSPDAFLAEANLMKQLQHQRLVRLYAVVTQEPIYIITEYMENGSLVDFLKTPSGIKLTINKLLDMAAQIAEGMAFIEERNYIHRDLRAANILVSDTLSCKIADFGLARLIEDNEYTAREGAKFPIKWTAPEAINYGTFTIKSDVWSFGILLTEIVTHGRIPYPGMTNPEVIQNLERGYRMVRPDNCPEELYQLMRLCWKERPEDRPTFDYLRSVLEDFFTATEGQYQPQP
Chain of Mitogen-activated protein kinase 8 (Homo sapiens) (P45983 whole entry): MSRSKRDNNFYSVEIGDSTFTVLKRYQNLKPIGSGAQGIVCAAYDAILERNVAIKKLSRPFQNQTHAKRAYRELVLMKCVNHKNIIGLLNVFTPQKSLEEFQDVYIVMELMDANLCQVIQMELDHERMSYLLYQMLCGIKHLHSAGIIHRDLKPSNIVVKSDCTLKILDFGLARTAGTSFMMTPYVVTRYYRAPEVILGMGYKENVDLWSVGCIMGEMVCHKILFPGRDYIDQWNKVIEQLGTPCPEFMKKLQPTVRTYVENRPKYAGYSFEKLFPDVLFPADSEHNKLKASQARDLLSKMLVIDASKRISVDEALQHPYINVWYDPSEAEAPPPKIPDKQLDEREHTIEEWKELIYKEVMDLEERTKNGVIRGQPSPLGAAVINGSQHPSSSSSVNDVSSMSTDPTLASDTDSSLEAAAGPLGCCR

Structure (SMILES): CN1CCC(Nc2ccc(C(=O)Nc3cc(-c4cc(C#N)cs4)n[nH]3)cc2)CC1
- Activity [1]: 8.32%
- Activity [2]: 23%
- Activity [3]: 12.9%
- Activity [4]: 49.2%
- Activity [5]: 68.7%
- Activity [6]: 11.8%
- Activity [7]: 20.6%
- Activity [8]: 102%
- Activity [9]: 86.5%
- Activity [10]: 80.7%
- Activity [11]: 89.6%
- Activity [12]: 30.2%
- Kd [13]: 280 nM
- Kd [14]: 2.2 nM
- Kd [15]: 72 nM
- IC50 [16]: 1010 nM
- IC50 [17]: 6.26 µM
- inhibition of growth at 10 µM (K562): 1.3%
- Activity (MV4-11 [18]): Non-Toxic
- Activity (MV4-11 [19]): 21.04%
- Activity (MV4-11 [20]): 14.8%
- Activity (MV4-11 [21]): 21.77%
- Activity (MV4-11 [22]): 4.1%
- viability at 0.5 µM (MV4-11 [23]): 39.8%
- viability at 1 µM (MV4-11 [24]): 34.5%
- microsomal CLint at 1 µM [25]: 171 µL/min/mg
